Experimental data published in US11833154B2, “Methods of treatment of myeloproliferative neoplasm” (priority 2017, dated 2023).

What was measured:
JAK2/IDH2-mutant MPN [1] = assay: Therapeutic assay: spleen weight, hematocrit and leukocyte count at sacrifice; type: in vivo, mice; settings: IDH2^R140Q JAK2^V617F bone marrow recipients, four weeks of treatment; vehicle mean 289.1
Experimental: (§1) Dissected femurs and tibias were isolated. Bone marrow was flushed into PBS+2% BSA or RPMI+10% FCS using a syringe or by centrifuge spin. Spleens were isolated and single cell suspensions made by mechanical disruption using glass slides. All harvested cells were passed through a […] strainer. Red blood cells (RBCs) were lysed in ammonium chloride-potassium bicarbonate lysis buffer for 10 min on ice. Cells were transplanted by via tail vein injection into lethally irradiated (2×550 Rad) CD45.1 host mice. For noncompetitive transplants, 1×10^6 total cells were transplanted; for competitive transplants including drug studies, 1×10^6 total donor cells were injected in a mixture with 1×10^6 cells from a congenic CD45.1 donor; for cell of origin transplants, injection number was determined based on the lowest yield after sort to inject approximately 100,000 MPP or 300 LT-HSC with 300,000 whole bone marrow cells from a CD45.1 donor.

[2] = system: JAK2/IDH2-mutant MPN/AML cells; assay: FACS of cell surface markers on cultured human colony cells; type: cell-based; settings: cultured patient cells, 400 nM
Experimental: (§2) Frozen or fresh PBMCs were plated in Methocult H4435 (Stem Cell) with penicillin and streptomycin in triplicate wells. MPN patient cells were plated after enrichment using CD34 Microbeads (Miltenyi) at 1,000 cells per well; AML patient cells were plated without enrichment at 100,000 cells per well.
To observe monocytic and granulocytic differentiation, antibodies against CD117/cKit, CD34, CD38, CD15 (HI98, eBioscience), CD14 (HCD14, BioLegend), and CD16 (3G8, BioLegend) were used.

[3] = system: IDH2^R140Q JAK2^V61F mutant cells; assay: Serum 2HG levels in treated transplant recipient mice (LC-MS); type: in vivo; settings: mice engrafted with IDH2^R140Q JAK2^V617F cells; oral AG221 40-100 mg/kg, ruxolitinib 60 mg per kg, BID; at sacrifice after four weeks; vehicle mean 1874
Experimental: as §1
2HG was extracted from serum using 80% aqueous methanol, as described by Lu et al., […]. […] All extracts were spun at 13,000 rpm at 4° C. to remove precipitate, dried at room temperature, and stored at −80° C.

JAK2/IDH2-mutant MPN [4] = assay: Bone marrow stem and progenitor populations by FACS in treated recipients; type: in vivo, mice; settings: for Erythrocyte progenitors: Pre-erythrocytes / Pre-MegE populations / Erythrocyte progenitors: CFU-E / Erythrocyte progenitors: Pre-CFU-E: bone marrow FACS; for Erythrocyte progenitors: Pre-erythrocytes / Pre-MegE populations / Erythrocyte progenitors: CFU-E / Erythrocyte progenitors: Pre-CFU-E / Total LSK number in the bone marrow: four weeks of treatment; for Erythrocyte progenitors: Pre-erythrocytes / Pre-MegE populations: vehicle 0.1757; for Erythrocyte progenitors: CFU-E: vehicle 1.621; for Erythrocyte progenitors: Pre-CFU-E: vehicle mean 0.5189%; for Total LSK number in the bone marrow: double mutant mice, vehicle mean 57.19×10^3
Experimental: as §1
(§3) Cells were stained with antibodies in FACS Buffer (2% Bovine Serum Albumin in phosphate-buffered saline (PBS)) for 30 min on ice. Donor and support chimerism was assessed using antibodies against CD45.1 (Clone A20, Biolegend) and CD45.2 (Clone 104, BioLegend).
Cells were also stained with antibodies specific to c-Kit/CD117 (clone 2B8, BioLegend), Sca-1 (clone D7, BioLegend), FcγRII/III/CD16/32 (clone 2.4G2, eBiosciences) and CD34 (clone RAM34, eBiosciences) or SLAM/CD150 (TC15-12F12.2, BioLegend) and CD48 (HM48-1, eBioscience). To assess mature cell lineages we used a combination of antibodies against Mac1, Gr-1, B220, CD3, cKit/CD117, CD45.1, and CD45.2.
To assess erythroid and megakaryocyte progenitors we stained unlysed tissues with a lineage cocktail including CD4, CD8, B220/CD45R, Mac1/CD11b, Gr-1, IL7R/CD127 (A7R34, BioLegend), CD49b (DX5, BioLegend). Antibodies were also used against c-Kit/CD117, Sca-1, SLAM/CD150, CD48, FcγRII/III/CD16/32, CD41 (eBioMWReg30, eBioscience), CD105 (MJ7/18, BioLegend), CD71 (RI7217, BioLegend), and Ter119 and gated as described by Pronk et al., Elucidation of the Phenotypic, Functional, and Molecular Topography of a Myeloerythroid Progenitor Cell Hierarchy, Cell Stem Cell 2007; 1:428-42.

[5] = system: IDH2^R140Q JAK2^V617F mutant LSK; assay: RNA-sequencing of donor-derived CD45.2 LSK from treated mice (GSEA); type: in vivo
Experimental: Before cell of origin transplants, sorting was performed on bone marrow with enrichment for cKit/CD117-positive cells using CD117 MicroBeads (Miltenyi). For expression analysis, sorting was performed on bone marrow that had been depleted of mature cells using Progenitor Cell Enrichment Kit ([…] Technologies).
CD45.2+ LSK cells were sorted into ice cold FACS Buffer, pelleted, and stored in Triazol until extraction of RNA using phenol-chlorophorm. The library was produced using SMARTer amplification (Clontech) amplify and create the library. Illumina sequencing was performed using Paired-End 50 bp at 40×10^6 reads per sample.

[6] = system: IDH2^R140Q JAK2^V617F MPN cells (CD45.2^+); assay: Paired donor chimerism in peripheral blood before and after treatment; type: in vivo, mice; settings: four weeks of treatment, vehicle +4.236
Experimental: as §1, §3

[7] = system: samples from patients with MPN and Post-MPN AML with IDH2^R140Q and JAK2^V617F mutations; assay: Human colony forming (methylcellulose) assay; type: cell-based; settings: Methocult H4435, 400 nM
Experimental: Approval was obtained from the Institutional Review Board at Memorial Sloan-Kettering Cancer Center. Tissues were collected in partnership with the Human Oncology Tissue Bank, and all patients provided informed consent. Fresh peripheral blood was collected into heparinized collection tubes, and separation of peripheral blood mononuclear cells (PBMC) was performed using hetastarch and a Ficoll gradient with subsequent red blood cell lysis.
as §2

[8] = system: JAK2/IDH2-mutant MPN cell metabolism; assay: LC/MS metabolite analysis of bone marrow aspirates from treated mice; type: in vivo, mouse
Experimental: External mass calibration was performed using the standard calibration mixture every 7 days. […] Buffer A was 20 mM ammonium carbonate, 0.1% ammonium hydroxide; buffer B was acetonitrile. […] The sheath gas flow was set to 40 units, the auxiliary gas flow was set to 15 units, and the sweep gas flow was set to 1 unit. […] Relative quantitation of polar metabolites was performed with XCalibur QuanBrowser 2.2 (Thermo Fisher Scientific) using a 5 ppm mass tolerance and referencing an in-house library of chemical standards.

JAK2/IDH2 mutant MPN = assay: Histology of bone marrow and spleen of treated recipients; type: in vivo, mice
Experimental: Pathology was obtained after fixation in 4% paraformaldehyde (PFA); blood smears and bone marrow cytospins were performed on the day of sacrifice. Sections were stained with hematoxylin and eosin stain or Wright Giemsa stain as appropriate. CD34+ staining was performed using CD34, Rat Monoclonal Antibody Performed on a Leica Bond™ RX using the Bond™ Polymer Refine Detection Kit (Cat. No. DS9800). The sections stained with CD34 (Abcam, Cat. Ab8158 diluted 1:50) were pre-treated using heat mediated antigen retrieval with Citrate, pH6 (Leica Biosystem Epitope Retrieval 1, Cat. No. AR9961) for 20 min. DAB was used as the chromogen, counterstained with hematoxylin and mounted.

[9] = CD45.2 LSK RNA-seq, GSEA, p<1e-4
[10] = stem cells of treated mice versus wild type, Hallmark GSEA

SMILES	Splenomegaly: spleen weight (mean) (JAK2/IDH2-mutant MPN [1]) [mg]	Serum 2HG levels (mean) [3] [ng/mL]	Erythrocyte progenitors: Pre-erythrocytes (JAK2/IDH2-mutant MPN [4])	Pre-MegE populations (JAK2/IDH2-mutant MPN [4])	Erythrocyte progenitors: CFU-E (JAK2/IDH2-mutant MPN [4])	Erythrocyte progenitors: Pre-CFU-E (JAK2/IDH2-mutant MPN [4]) [%]	Total LSK number in the bone marrow (JAK2/IDH2-mutant MPN [4])	NES, downregulated genes of the combination-therapy signature also altered by monotherapy [5, 9]	Mutant donor chimerism, mean change pre- and post-treatment [6]	further results
CC(C)(O)CNc1nc(Nc2ccnc(C(F)(F)F)c2)nc(-c2cccc(C(F)(F)F)n2)n1 [AG221, 2-methyl-1-[(4-[6-(trifluoromethyl)pyridin-2-yl]-6-{[2-(trifluoromethyl)pyridin-4-yl]amino}-1,3,5-triazin-2-yl)amino]propan-2-ol]	188.3	744.4	0.03906	0.03906	0.8251	0.1913	36.43×10^3	−2.3	−6.291%	Differentiation markers CD235a / CD14 [2]: upregulation; Surface expression of immature marker cKit/CD117 / proportion of c-Kit positive colonies [2]: reduced; Proportion of CD45.2 myeloid progenitor populations (JAK2/IDH2-mutant MPN [4]; donor-derived cells, number of CD45.1 myeloid progenitors not affected): reduced; NES, upregulated genes of the combination-therapy signature also reversed by monotherapy [5, 9]: +1.9; IL6/JAK/STAT3 gene expression signature [5, 10]: enrichment for expression of genes in this pathway were seen; Interferon gamma signatures [5, 10]: significantly enriched; Oncogenic signatures (cMYC, mTOR, KRAS) [5, 10]: highly significant enrichment; BFU-E colonies [7]: presence of BFU-E colonies; Colony number / colony output ([7]; DMSO controls): increase in colony number; 2HG levels in bone marrow aspirates ([8]; after 10 days of treatment): Reduction; Levels of Kreb's cycle intermediates (α-ketoglutarate, citrate, succinate, fumarate, malate) ([8]; bone marrow aspirates, 10 days of treatment, p<0.0252): reduced; Aberrant CD34 expression in megakaryocytes (JAK2/IDH2 mutant MPN; CD34 immunohistochemical stain of bone marrow): resulted the aberrant CD34 expression seen in megakaryocytes; Expansion of spleen blasts (JAK2/IDH2 mutant MPN; histology, compared with untreated JAK2/IDH2 mutant MPN): eliminated the expansion of spleen blasts
N#CC[C@H](C1CCCC1)n1cc(-c2ncnc3[nH]ccc23)cn1 [ruxolitinib, reference compound]	101.3	1233	0.08063	0.08063	0.5553	0.1103	20.73×10^3	−2.2	+3.256%	–
